From paper PMC3344887 (PLoS ONE, 2012)
Read-outs that look alike come from different tables or passages of the source.

Key:
DAT [1] = target: T1, DAT (Homo sapiens, UniProt Q01959); assay: cell-based
healthy subjects [2] = assay: Soft-link PK-PD model, MDMA plasma concentration vs VAS any drug effect; type: in vivo, humans; conditions: for EC50: Homo sapiens
Excerpt: PK-PD modeling: First, a soft-link PK-PD model was used to evaluate the in vivo relationship between the concentration of MDMA and subjective effect of the drug. The change in the VAS for any drug effect was used as the pharmacodynamic measure in each individual. Because we observed clockwise hysteresis in the effect-concentration relationship over time, we used PK-PD data pairs within the ascending part of the individual curves up to Emax or Cmax. Our estimate of Emax, which should represent the maximal response portion of the dose-response curve, may already have been affected by tolerance. […] Based on the good brain penetration of MDMA and absence of a time lag, we assumed rapid equilibration between plasma and the central compartment (brain). […] The sigmoid Emax model provided a better fit than a simple Emax or linear model. Data pooling was used because only few data pairs were available per subject. Non-linear regression was used to obtain parameter estimates. Second, we also used a hard-link PK-PD model to predict in vivo PD effects based on the in vitro concentration-response data linked to the observed individual in vivo PK. […] Similar to the soft-link PK-PD model, a single compartment PK model (plasma = brain concentration) was used, and only ascending PK or PD values were included. The in vivo data were linked to the PK of each individual, and a mean predicted effect-time curve was established.

NET [3] = target: T2, NET (Homo sapiens, UniProt P23975); assay: [3H]-NE uptake inhibition, method A (silicon oil); type: cell-based; set-up: expressed in transfected cells; host or cells: HEK 293 cells (Invitrogen), stably transfected
T2 sequence (P23975 whole entry): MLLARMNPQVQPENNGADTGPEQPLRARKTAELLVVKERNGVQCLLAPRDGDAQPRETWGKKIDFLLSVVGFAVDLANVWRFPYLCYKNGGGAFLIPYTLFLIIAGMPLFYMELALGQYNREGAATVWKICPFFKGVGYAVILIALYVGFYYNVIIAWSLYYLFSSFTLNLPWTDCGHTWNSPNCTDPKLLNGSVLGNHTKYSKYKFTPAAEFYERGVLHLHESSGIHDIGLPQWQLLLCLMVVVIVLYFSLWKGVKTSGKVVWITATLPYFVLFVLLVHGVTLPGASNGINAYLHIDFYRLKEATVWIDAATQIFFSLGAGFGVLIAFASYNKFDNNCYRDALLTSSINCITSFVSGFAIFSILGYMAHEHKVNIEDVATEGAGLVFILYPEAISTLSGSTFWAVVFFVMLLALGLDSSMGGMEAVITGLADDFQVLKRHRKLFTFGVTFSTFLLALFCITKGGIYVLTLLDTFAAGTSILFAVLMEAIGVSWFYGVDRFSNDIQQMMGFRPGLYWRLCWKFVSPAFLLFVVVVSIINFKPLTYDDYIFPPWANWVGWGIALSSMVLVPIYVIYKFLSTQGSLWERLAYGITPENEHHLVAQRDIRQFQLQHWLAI

healthy subjects [4] = assay: Physiologic measures (blood pressure, heart rate, body temperature), clinical study; type: in vivo, humans; conditions: peak change from baseline, mean±SEM, 16 subjects
Protocol: (§1) The washout periods between the sessions were at least 10 days long.
(§2) Identical placebo (lactose) capsules were prepared. […] Drugs were administered without food.
Physiologic measures were assessed repeatedly 4, 3, 2, and 1 h before and 0, 0.33, 0.66, 1, 1.5, 2, 2.5, 3, 4, 5, and 6 h after MDMA or placebo administration. Heart rate, systolic blood pressure, and diastolic blood pressure were measured using an OMRON M7 blood pressure monitor (OMRON Healthcare Europe, Hoofddorp, The Netherlands). Measures were taken twice per time point with an interval of 1 min, and the average was used for the analysis. Core (tympanic) temperature was assessed using a GENIUS 2 ear thermometer (Tyco Healthcare Group, Watertown, NY). […] Adverse effects were assessed using the List of Complaints (LC), which consists of 66 items that yield a total adverse effects score and reliably measure physical and general discomfort.
(§3) Clinical data values were transformed to differences from baseline. Peak effects (Emax) were determined for repeated measures. Emax values were compared using General Linear Models repeated-measures analysis of variance, with drug as within-subject factor, using Statistica 6.0 software (StatSoft, Tulsa, OK). Tukey post hoc comparisons were performed based on significant main effects of treatment. Additional analyses of variance were performed, with period as factor to exclude period effects. Correlation analyses were performed using Pearson’s correlations. The criterion for significance was p<0.05. Mean arterial pressure (MAP) was calculated from diastolic blood pressure and systolic blood pressure using the following formula: MAP = DBP+(SBP - DBP)/3.

NET [5] = target: T2, NET; assay: Radioligand binding, [3H]-nisoxetine, HEK 293 membranes; set-up: expressed in transfected cells; host or cells: HEK 293 cells (Invitrogen), stably transfected
HEK 293 cells = assay: Toxilight toxicity assay, cell integrity; type: cell-based, human
NET [6] = target: T2, NET; conditions: % of plasma sample dilution, undiluted plasma = 100%; plasma 120 min after MDMA/placebo; mean±SEM
DAT [7] = target: T1, DAT; assay: Radioligand binding, [3H]-WIN35,428, HEK 293 membranes; set-up: expressed in transfected cells; host or cells: HEK 293 cells (Invitrogen), stably transfected
healthy subjects [8] = assay: Visual Analog Scales, subjective drug effects, clinical study; type: in vivo, humans
Protocol: as §1, §2
(§4) The psychometric measures included Visual Analog Scales (VAS), [10], the Adjective Mood Rating Scale (AMRS), and 5-Dimensions of Altered States of Consciousness (5D-ASC), [23]. […] The VASs were presented as 100 mm horizontal lines marked “not at all" on the left and “extremely" on the right. The VASs for “closeness to others," “open," and “talkative" were bidirectional (±50 mm). The VASs were administered 4 h before and 0, 0.33, 1, 1.5, 2, 2.5, 3, 3.5, 4, and 5 h after MDMA or placebo administration. […] The AMRS contains subscales for activity, extroversion and introversion, well-being, emotional excitation, anxiety-depression, and dreaminess. The 5D-ASC rating scale measures alterations in mood, perception, experience of self in relation to the environment, and thought disorder. The 5D-ASC rating scale comprises five subscales or dimensions and 11 lower-order scales. The 5D-ASC dimension “oceanic boundlessness" (OB, 27 items) measures derealization and depersonalization associated with positive emotional states, ranging from heightened mood to euphoric exaltation. […] The global ASC score was determined by adding the OB, AED, and VR scores. The 5D-ASC scale was administered 4 h after MDMA or placebo administration.
as §3

SERT = SERT (Homo sapiens, UniProt P31645); conditions: % of plasma sample dilution, undiluted plasma = 100%; plasma 120 min after MDMA/placebo; mean±SEM
Chain of SERT (P31645 whole entry): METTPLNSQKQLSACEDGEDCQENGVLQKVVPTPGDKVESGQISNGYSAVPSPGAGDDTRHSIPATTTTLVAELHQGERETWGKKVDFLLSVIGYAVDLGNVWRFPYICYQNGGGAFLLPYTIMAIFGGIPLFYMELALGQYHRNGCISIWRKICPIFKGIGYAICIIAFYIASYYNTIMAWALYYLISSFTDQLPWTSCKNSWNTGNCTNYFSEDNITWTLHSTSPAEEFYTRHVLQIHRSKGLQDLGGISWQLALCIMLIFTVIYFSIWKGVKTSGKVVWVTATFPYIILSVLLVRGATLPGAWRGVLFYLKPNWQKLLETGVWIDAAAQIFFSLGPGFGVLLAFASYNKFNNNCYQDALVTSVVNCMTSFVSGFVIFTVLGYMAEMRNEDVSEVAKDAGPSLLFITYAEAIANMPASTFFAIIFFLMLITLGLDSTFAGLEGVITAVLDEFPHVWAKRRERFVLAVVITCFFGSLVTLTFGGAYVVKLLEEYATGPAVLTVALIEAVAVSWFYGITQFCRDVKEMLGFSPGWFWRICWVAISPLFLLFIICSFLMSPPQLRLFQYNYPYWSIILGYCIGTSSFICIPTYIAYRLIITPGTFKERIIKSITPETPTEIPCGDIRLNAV

healthy subjects [9] = assay: 5-Dimensions of Altered States of Consciousness (5D-ASC), clinical study; type: in vivo, humans; conditions: placebo-placebo vs placebo-MDMA
Protocol: as §1, §2, §4

[10] = cited from earlier work
DAT [11] = target: T1, DAT; conditions: % of plasma sample dilution, undiluted plasma = 100%; plasma 120 min after MDMA/placebo
[12] = peak change from baseline, mean±SEM, 16 subjects

T1 sequence (Q01959 whole entry): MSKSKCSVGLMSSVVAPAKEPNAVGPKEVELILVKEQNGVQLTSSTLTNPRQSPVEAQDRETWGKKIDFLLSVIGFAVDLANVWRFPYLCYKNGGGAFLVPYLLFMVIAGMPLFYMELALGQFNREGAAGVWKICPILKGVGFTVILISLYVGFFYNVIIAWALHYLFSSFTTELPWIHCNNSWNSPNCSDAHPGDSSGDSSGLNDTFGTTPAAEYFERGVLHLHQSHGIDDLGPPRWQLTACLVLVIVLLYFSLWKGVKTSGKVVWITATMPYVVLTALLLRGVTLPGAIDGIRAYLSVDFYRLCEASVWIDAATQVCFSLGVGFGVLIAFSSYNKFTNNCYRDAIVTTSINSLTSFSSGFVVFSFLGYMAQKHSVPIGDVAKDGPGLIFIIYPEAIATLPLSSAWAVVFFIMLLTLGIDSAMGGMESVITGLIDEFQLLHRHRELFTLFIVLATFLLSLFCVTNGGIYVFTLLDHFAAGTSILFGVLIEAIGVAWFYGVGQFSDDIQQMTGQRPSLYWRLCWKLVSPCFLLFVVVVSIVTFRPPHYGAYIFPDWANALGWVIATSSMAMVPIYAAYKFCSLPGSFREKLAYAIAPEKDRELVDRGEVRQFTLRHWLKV

Compound: CNC(C)Cc1ccc2c(c1)OCO2 (centres unmarked) [MDMA, 3,4-methylenedioxymethamphetamine]
- Ki (DAT [1]): 16.7 µM
- EC50 (healthy subjects [2]; second statement, in brackets, read-out: EC50 of the PK-PD curve in humans): 380 nM
- EC50 (healthy subjects [2]; second statement, read-out: EC50 of the PK-PD curve in humans): 0.074 µg/mL
- EC50 (healthy subjects [2]; sigmoid Emax model, in brackets, read-out: EC50 of in vivo PK-PD relationship (MDMA plasma concentration)): 480 nM
- EC50 (healthy subjects [2]; sigmoid Emax model, pooled data, read-out: EC50 of in vivo PK-PD relationship (MDMA plasma concentration)): 0.0925 ± 0.0076 µg/mL
- Emax of in vivo PK-PD relationship (any drug effect) (healthy subjects [2]; sigmoid Emax model, pooled data): 93.8±7.3%
- Ki (NET [3]): 470 nM
- Potency of NET inhibition relative to SERT (NET [3]; uptake inhibition): three-fold more potently
- DPB, Emax (healthy subjects [4]; diastolic blood pressure): 22.13±2.08 mm Hg
- MAP, Emax (healthy subjects [4]; mean arterial pressure): 21.76±2.73 mm Hg
- Heart rate, Emax (healthy subjects [4]): 26.06±2.77 beats/min
- SBP, Emax (healthy subjects [4]; systolic blood pressure): 29.94±3.41 mm Hg
- Body temperature, Emax (healthy subjects [4]; tympanic): 0.54±0.07 °C
- Ki (NET [5]): 22.4 ± 14.6 µM
- Cell integrity after treatment (HEK 293 cells): confirmed
- Ex vivo binding (IC50%) NET (NET [6]): 23.4±0.7%
- Ki (DAT [7]): 6.52 ± 2.24 µM
- Observed time to half-maximal subjective drug effect (healthy subjects [8]; after drug administration): 44 ± 4 min
- VAS Any drug effect, Emax (healthy subjects [8]; [12]): 86.69±3.57
- VAS Closeness, Emax (healthy subjects [8]; [12]): 27.31±3.87
- VAS Drug high, Emax (healthy subjects [8]; [12]): 87.81±4.85
- VAS Drug liking, Emax (healthy subjects [8]; [12]): 90.69±4.82
- VAS Good drug effect, Emax (healthy subjects [8]; [12]): 89.38±4.67
- VAS Open, Emax (healthy subjects [8]; [12]): 32.16±4.29
- VAS Stimulated, Emax (healthy subjects [8]; [12]): 76.31±6.84
- VAS Talkative, Emax (healthy subjects [8]; [12]): 28.81±5.12
- Ex vivo binding (IC50%) SERT (SERT): >25%
- Effect on ASC sum score, OB, AED and VR dimensions (healthy subjects [9]): significantly increased
- T1/2 ([10]; 100 -125 mg dose): 8 to 9 h
- Increase of MDMA plasma levels ([10]; pretreatment with paroxetine): 30%
- Tmax ([10]; single dose): 120 to 144 min
- Ex vivo binding (IC50%) DAT (DAT [11]): >25%
